According to US20260217735A1, “HETEROCYCLES AND USES THEREOF” (Kumquat Biosciences Inc., priority 2023, published 2026):

Columns and labels:
[1] = molecular target: T1, KRAS G12V (Homo sapiens, UniProt P01116, G12V); assay: HTRF assay, KRAS G12V interaction with SOS1; format: biochemical; conditions: bins <500 nM / 500 nM to 1000 nM, read-out: Inhibition of KRAS G12V (IC50)
T1 construct: made in house; host or cells: E. coli, e.g. BL21 (DE3)

[2] = molecular target: T2, KRAS G12D (Homo sapiens, UniProt P01116, G12D); assay: HTRF assay, KRAS G12D interaction with SOS1; format: biochemical; conditions: bins <500 nM / 500 nM to 1000 nM, read-out: Inhibition of KRAS G12D (IC50)
T2 construct: made in house; host or cells: E. coli, e.g. BL21 (DE3)

[3] = molecular target: T3, KRAS G12S (Homo sapiens, UniProt P01116, G12S); assay: HTRF assay, KRAS G12S interaction with SOS1; format: biochemical; conditions: bins <500 nM / 500 nM to 1000 nM, read-out: Inhibition of KRAS G12S (IC50)
T3 construct: made in house; host or cells: E. coli, e.g. BL21 (DE3)

[4] = system: MiaPaca2 cells; assay: Ras cellular assay, growth of cells with K-Ras G12C mutation; format: cell-based; conditions: Homo sapiens, MIA PaCa-2; cell proliferation assay; bins ≤500 nM / >500 nM; read-out: Inhibition of MiaPaca2 Cells (IC50)
Method in brief: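 MIA PaCa-2 cells (K-Ras G12C, about 125-150 cells/well) grown in 0.25% soft agar over a 0.6% agar base, compound added on day 2 at 0.3% final DMSO. Growth read on day 10 by Cell Titer 96 AQueous absorbance (490 nm, reference 660 nm) against time-zero wells; IC50 from four-parameter fit.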

[5] = molecular target: T4, KRAS WT (Homo sapiens, UniProt P01116); assay: HTRF assay, wildtype KRAS interaction with SOS1; format: biochemical; conditions: bins <500 nM / 500 nM to 1000 nM, read-out: Inhibition of KRAS WT (IC50)
T4 construct: made in house; host or cells: E. coli, e.g. BL21 (DE3)
T4 sequence (P01116 1-188 isoform P01116-2): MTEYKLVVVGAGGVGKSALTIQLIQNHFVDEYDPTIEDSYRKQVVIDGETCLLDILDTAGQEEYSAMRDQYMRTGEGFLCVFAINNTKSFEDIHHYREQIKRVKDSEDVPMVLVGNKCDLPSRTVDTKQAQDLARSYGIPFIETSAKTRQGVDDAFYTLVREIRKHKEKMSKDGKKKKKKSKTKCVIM

T1 sequence (P01116 1-188 isoform P01116-2 G12V): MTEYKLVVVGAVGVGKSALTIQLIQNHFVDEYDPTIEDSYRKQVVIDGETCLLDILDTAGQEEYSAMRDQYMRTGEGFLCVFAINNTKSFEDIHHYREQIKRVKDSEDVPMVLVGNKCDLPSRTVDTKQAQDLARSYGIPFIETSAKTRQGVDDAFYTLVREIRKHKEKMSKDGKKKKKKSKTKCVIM
T3 sequence (P01116 1-188 isoform P01116-2 G12S): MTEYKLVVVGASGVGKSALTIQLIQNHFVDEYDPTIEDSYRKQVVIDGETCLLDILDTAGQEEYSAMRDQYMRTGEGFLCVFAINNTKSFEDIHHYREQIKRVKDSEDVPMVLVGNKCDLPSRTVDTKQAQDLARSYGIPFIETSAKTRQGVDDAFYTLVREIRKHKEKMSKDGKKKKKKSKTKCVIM
T2 sequence (P01116 1-188 isoform P01116-2 G12D): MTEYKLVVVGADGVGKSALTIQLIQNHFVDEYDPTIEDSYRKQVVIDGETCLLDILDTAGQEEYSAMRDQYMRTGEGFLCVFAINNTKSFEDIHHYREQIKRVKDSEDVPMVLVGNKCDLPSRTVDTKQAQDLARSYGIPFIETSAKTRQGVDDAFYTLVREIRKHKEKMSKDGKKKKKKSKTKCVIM

Structure (SMILES)	IC50 [1]	IC50 [2]	IC50 [3]	IC50 [4]	IC50 [5]
C[C@@H]1[C@H](N(C)c2nc(OC[C@@]34CCCN3C[C@H](F)C4)nc3c(F)c(-c4ccc(F)c5sc(N)c(C#N)c45)c(Cl)cc23)CCN1C(=O)n1cnc(F)n1 [Compound 112, 2-amino-4-(6-chloro-8-fluoro-4-(((2R,3R)-1-(3-fluoro-1H-1,2,4-triazole-1-carbonyl)-2-methylpyrrolidin-3-yl)(methyl)amino)-2-(((2R,7aS)-2-fluorotetrahydro-1H-pyrrolizin-7a(5H)-yl)methoxy)quinazolin-7-yl)-7-fluorobenzo[b]thiophene-3-carbonitrile]	< 500 nM	< 500 nM	< 500 nM	≤ 500 nM	< 500 nM
Cc1cn(C(=O)N2CC[C@@H](N(C)c3nc(OC[C@@]45CCCN4C[C@H](F)C5)nc4c(F)c(-c5ccc(F)c6sc(N)c(C#N)c56)c(Cl)cc34)[C@H]2C)cn1 [Compound 144, 2-amino-4-(6-chloro-8-fluoro-2-(((2R,7aS)-2-fluorotetrahydro-1H-pyrrolizin-7a(5H)-yl)methoxy)-4-(methyl((2R,3R)-2-methyl-1-(4-methyl-1H-imidazole-1-carbonyl)pyrrolidin-3-yl)amino)quinazolin-7-yl)-7-fluorobenzo[b]thiophene-3-carbonitrile]	< 500 nM	< 500 nM	< 500 nM	≤ 500 nM	< 500 nM
Cc1cn(C(=O)N2CC(CN(C)c3nc(OC[C@@]45CCCN4C[C@H](F)C5)nc4c(F)c(-c5ccc(F)c6sc(N)c(C#N)c56)c(Cl)cc34)(C(F)F)C2)cn1 [Compound 156, 2-amino-4-(6-chloro-4-(((3-(difluoromethyl)-1-(4-methyl-1H-imidazole-1-carbonyl)azetidin-3-yl)methyl)(methyl)amino)-8-fluoro-2-(((2R,7aS)-2-fluorotetrahydro-1H-pyrrolizin-7a(5H)-yl)methoxy)quinazolin-7-yl)-7-fluorobenzo[b]thiophene-3-carbonitrile]	< 500 nM	< 500 nM	< 500 nM	≤ 500 nM	< 500 nM
CCN(c1nc(OC[C@@]23CCCN2C[C@H](F)C3)nc2c(F)c(-c3ccc(F)c4sc(N)c(C#N)c34)c(Cl)cc12)[C@@H]1CCN(C(=O)n2ccnc2Cl)[C@@H]1C [Compound 186, 2-amino-4-(6-chloro-4-(((2R,3R)-1-(2-chloro-1H-imidazole-1-carbonyl)-2-methylpyrrolidin-3-yl)(ethyl)amino)-8-fluoro-2-(((2R,7aS)-2-fluorotetrahydro-1H-pyrrolizin-7a(5H)-yl)methoxy)quinazolin-7-yl)-7-fluorobenzo[b]thiophene-3-carbonitrile]	< 500 nM	< 500 nM	< 500 nM	≤ 500 nM	< 500 nM
Cc1c(C#N)ncn1C(=O)N1CC[C@@H](N(C)c2nc(OC[C@@]34CCCN3C[C@H](F)C4)nc3c(F)c(-c4ccc(F)c5sc(N)c(C#N)c45)c(Cl)cc23)[C@H]1C [Compound 141, 1-((2R,3R)-3-((7-(2-amino-3-cyano-7-fluorobenzo[b]thiophen-4-yl)-6-chloro-8-fluoro-2-(((2R,7aS)-2-fluorotetrahydro-1H-pyrrolizin-7a(5H)-yl)methoxy)quinazolin-4-yl)(methyl)amino)-2-methylpyrrolidine-1-carbonyl)-5-methyl-1H-imidazole-4-carbonitrile]	< 500 nM	< 500 nM	< 500 nM	≤ 500 nM	< 500 nM
Cc1nc(C#N)cn1C(=O)N1C[C@]2(CCCCN(c3nc(OC[C@@]45CCCN4C[C@H](F)C5)nc4c(F)c(-c5ccc(F)c6sc(N)c(C#N)c56)c(Cl)cc34)C2)[C@H]1C [Compound 165, 1-((1R,4R)-6-(7-(2-amino-3-cyano-7-fluorobenzo[b]thiophen-4-yl)-6-chloro-8-fluoro-2-(((2R,7aS)-2-fluorotetrahydro-1H-pyrrolizin-7a(5H)-yl)methoxy)quinazolin-4-yl)-1-methyl-2,6-diazaspiro[3.6]decane-2-carbonyl)-2-methyl-1H-imidazole-4-carbonitrile]	< 500 nM	< 500 nM	< 500 nM	≤ 500 nM	< 500 nM
CN(c1nc(OC[C@@]23CCCN2C[C@H](F)C3)nc2c(F)c(-c3ccc(F)c4sc(N)c(C#N)c34)c(Cl)cc12)C1CN(C(=O)n2ccnc2)CC1F (mixture of isomers) [Compound 214, 2-amino-4-(6-chloro-8-fluoro-4-((4-fluoro-1-(1H-imidazole-1-carbonyl)pyrrolidin-3-yl)(methyl)amino)-2-(((2R,7aS)-2-fluorotetrahydro-1H-pyrrolizin-7a(5H)-yl)methoxy)quinazolin-7-yl)-7-fluorobenzo[b]thiophene-3-carbonitrile]	< 500 nM	< 500 nM	< 500 nM	≤ 500 nM	< 500 nM

More lines, now with the values ahead:

IC50 [1]	IC50 [2]	IC50 [3]	IC50 [4]	IC50 [5]	Structure (SMILES)
< 500 nM	< 500 nM	< 500 nM	≤ 500 nM	< 500 nM	Cc1ncn(C(=O)N2C[C@]3(CCCCN(c4nc(OC[C@@]56CCCN5C[C@H](F)C6)nc5c(F)c(-c6ccc(F)c7sc(N)c(C#N)c67)c(Cl)cc45)C3)[C@H]2C2(C)CC2)c1C [Compound 174, 2-amino-4-(6-chloro-4-((1R,4R)-2-(4,5-dimethyl-1H-imidazole-1-carbonyl)-1-(1-methylcyclopropyl)-2,6-diazaspiro[3.6]decan-6-yl)-8-fluoro-2-(((2R,7aS)-2-fluorotetrahydro-1H-pyrrolizin-7a(5H)-yl)methoxy)quinazolin-7-yl)-7-fluorobenzo[b]thiophene-3-carbonitrile]
< 500 nM	< 500 nM	< 500 nM	≤ 500 nM	< 500 nM	Cc1cn(C(=O)N2CC(F)(CN(C)c3nc(OC[C@@]45CCCN4C[C@H](F)C5)nc4c(F)c(-c5ccc(F)c6sc(N)c(C#N)c56)c(Cl)cc34)C2)cn1 [Compound 128, 2-amino-4-(6-chloro-8-fluoro-4-(((3-fluoro-1-(4-methyl-1H-imidazole-1-carbonyl)azetidin-3-yl)methyl)(methyl)amino)-2-(((2R,7aS)-2-fluorotetrahydro-1H-pyrrolizin-7a(5H)-yl)methoxy)quinazolin-7-yl)-7-fluorobenzo[b]thiophene-3-carbonitrile]
< 500 nM	< 500 nM	< 500 nM	≤ 500 nM	< 500 nM	C[C@@H]1[C@H](N(C)c2nc(OC[C@@]34CCCN3C[C@H](F)C4)nc3c(F)c(-c4ccc(F)c5sc(N)c(C#N)c45)c(Cl)cc23)CCN1C(=O)n1ccc(C#N)c1 [Compound 205, 1-((2R,3R)-3-((7-(2-amino-3-cyano-7-fluorobenzo[b]thiophen-4-yl)-6-chloro-8-fluoro-2-(((2R,7aS)-2-fluorotetrahydro-1H-pyrrolizin-7a(5H)-yl)methoxy)quinazolin-4-yl)(methyl)amino)-2-methylpyrrolidine-1-carbonyl)-1H-pyrrole-3-carbonitrile]
< 500 nM	< 500 nM	< 500 nM	≤ 500 nM	< 500 nM	CC[C@@H]1[C@H](N(CC)c2nc(OC[C@@]34CCCN3C[C@H](F)C4)nc3c(F)c(-c4ccc(F)c5sc(N)c(C#N)c45)c(Cl)cc23)CCN1C(=O)n1ccnc1 [Compound 173, 2-amino-4-(6-chloro-4-(ethyl((2R,3R)-2-ethyl-1-(1H-imidazole-1-carbonyl)pyrrolidin-3-yl)amino)-8-fluoro-2-(((2R,7aS)-2-fluorotetrahydro-1H-pyrrolizin-7a(5H)-yl)methoxy)quinazolin-7-yl)-7-fluorobenzo[b]thiophene-3-carbonitrile]
